# Laboratory results: patent US11400089B2, “Multikinase inhibitors and uses in reproductive and digestive tract fibrosis” (AIVIVA BIOPHARMA, INC., priority 2017, dated 2022)
# Counter-ions that a name gives are not always drawn.
# Columns and labels:
# [1] = system: full-thickness dermal wounds; experiment: full-thickness dermal wounds in rabbit ear, histopathology (Example 5); assay type: in vivo, New Zealand White rabbits; parameters: average total score of test wounds lower than untreated/control wounds by / Neovascularization (histopathology score, treated mean) / Fibrosis/Collagen (histopathology score, treated mean) / Reepithelialization (histopathology score, treated mean) / Total Score (histopathology, treated mean): scale not given here; conditions: for Fibrosis/Collagen (histopathology score, treated mean) / Neovascularization (histopathology score, treated mean) / Reepithelialization (histopathology score, treated mean) / Total Score (histopathology, treated mean): 1% intradermal dosing days 15 and 29, Day 42
# Description: Test compounds were examined in full-thickness dermal wounds in rabbits. Seven male New Zealand White rabbits, ranging in body weight from 3.03 to 3.40 kg were used in this study. Four wounds were placed on the ventral surface of both ears using an 8 mm skin punch biopsy. Axitinib (1.0%), nintedanib (1.0%), lenvatinib (1.0%), sorafenib (1.0%) and sunitinib (1.0%) were administered by intradermal or intralesional injection on days 15 and 29 following surgery. Animals were euthanized on Day 42 and trauma sites were harvested and divided in half. One half was preserved in formalin for histological examination and the other half frozen for TGF beta analysis. Tissue H&E staining was evaluated semi-quantitatively for inflammation and neovascularization. Tissue fibrosis and collagen organization were evaluated by Mason's trichrome staining. Scores for four intradermal sites receiving test articles were averaged for each rabbit. Most scar tissues were composed of neovascularization, fibroblast hyperplasia, collagen disorganization and re-epithelialization.
# [2] = system: testosterone and phenylephrine induced benign prostate hyperplasia; experiment: testosterone and phenylephrine induced benign prostate hyperplasia in rats (Example 1); assay type: in vivo, Male Wistar rats; conditions: for epithelial hyperplasia score, representative image of dorsolateral prostate: FIG. 2; for mean dorsolateral prostate hyperplasia scores compared to vehicle treatment: induced rats, intra-prostate days 15 and 29, axitinib, sorafenib, FIG. 3; for mean prostate weight (prostate weight/100 g body weight): day 42, FIG. 1
# Description: Wistar and Sprague-Dawley strains of rats are susceptible to developing benign prostatic hyperplasia after treatment with exogenous testosterone and can serve as a model of hyperplasia induced by endogenous hormones, i.e., BPH in males and uterine fibroids (UF) in females. A study was conducted to determine the effects of test compounds and vehicle on testosterone and phenylephrine induced benign prostate hyperplasia in rats. Male Wistar rats were induced with testosterone (2 mg/kg) plus phenylephrine (5 mg/kg) administered daily by subcutaneous injection on days 1 through 28. Vehicle or the multikinase test compounds, axitinib (1%), sorafenib (1%), pirfenidone (2.5%) and riociguat (1%), were administered by intra-prostate injection (0.2 mL) on days 15 and 29. Animals were euthanized on day 42. Body weights were determined. Prostate glands were harvested and weighed.
# Prostate weight/100 g body weight was determined for each treatment group (FIG. 1). […] Rather, only multikinase inhibitors with a certain inhibitory spectrum would work.
# At necropsy, the dorsolateral and ventral lobes of the prostate were separated and cut into halves. The left halves were fixed in 10% neutral buffered formalin, sectioned, and stained with Hematoxylin and Eosin (H&E). Glandular hyperplasia was recognized as an increase in epithelial cells within normal appearing gland profiles, reflected by stratification of epithelial cells and increased presence of epithelial tufting and papillary projections (FIG. 2). Stromal changes were examined microscopically. These changes included inflammation and tissue fibroplasia. Each section was given a severity score ranging from 0 (not present) through 5 (severe).
# [3] = system: testosterone and phenylephrine induced benign prostate hyperplasia; experiment: testosterone and phenylephrine induced benign prostate hyperplasia in rats (Example 3); assay type: in vivo, Male Wistar rats; conditions: for epithelial (glandular) hyperplasia score, dorsolateral prostate, representative image: grade 0 (not present) to 5 (severe), FIG. 4
# Description: This study was conducted to determine the effects of multikinase inhibitors and vehicle on testosterone and phenylephrine induced benign prostate hyperplasia in rats. Male Wistar rats were induced with testosterone (2 mg/kg) plus phenylephrine (5 mg/kg) administered daily by subcutaneous injection on days 5 through 32. Vehicle or test compounds (all 1% w/v), nintedanib, sunitinib or lenvatinib and doxazosin mesylate, were administered by intra-prostate injection (0.4 ml) in dorsolateral and ventral lobes on days 1 and 18. Animals were euthanized on day 32.
# At necropsy, the ventral and dorsolateral lobes of the prostate were separated and then cut into halves. The left halves were fixed in 10% neutral buffered formalin, sectioned, and stained with Hematoxylin and Eosin (H&E). Histological changes in these sections were scored. Epithelial hyperplasia was recognized as an increase in epithelial cells within normal-appearing gland profiles, primarily reflected by stratification of epithelial cells and increased presence of epithelial tufting and papillary projections. A severity grade of 0 (not present) through 5 (severe) was assigned to each sample.
# TGF beta mRNA expression = TGF beta mRNA expression in rabbit dermal wound model (Example 5); assay type: in vivo, New Zealand White rabbits; conditions: 1% intradermal days 15 and 29; Day 42; FIG. 10
# Description: Test compounds were examined in full-thickness dermal wounds in rabbits. Seven male New Zealand White rabbits, ranging in body weight from 3.03 to 3.40 kg were used in this study. Four wounds were placed on the ventral surface of both ears using an 8 mm skin punch biopsy. Axitinib (1.0%), nintedanib (1.0%), lenvatinib (1.0%), sorafenib (1.0%) and sunitinib (1.0%) were administered by intradermal or intralesional injection on days 15 and 29 following surgery. Animals were euthanized on Day 42 and trauma sites were harvested and divided in half. One half was preserved in formalin for histological examination and the other half frozen for TGF beta analysis.
# TGF beta mRNA expression in treated trauma samples was compared to expression in untreated samples. In general, TGF beta expression in treated samples was lower relative to untreated trauma samples.
# [4] = system: suture induced ocular fibrosis; experiment: suture induced ocular fibrosis model in rabbits (Example 4); assay type: in vivo
# Description: A study was conducted to determine the potential beneficial effects of topical administration of test compounds and vehicle in a suture induced ocular fibrosis model in rabbits. Sutures were placed intrastromally, under a microscope, in the cornea of rabbits. In each eye, one 9.0 silk suture was placed, in a vertical position, temporal to the center of the cornea and a second suture was placed nasal to the corneal center. Each suture had two stromal incursions approximately 2 mm from the limbus. Test compounds having a certain spectrum of multikinase inhibition activities or vehicle were topically instilled (35 μL/eye) in the eyes three times daily for 10 days following the day of surgery. The treatment groups include vehicle, axitinib (0.3%), nintedanib (0.3%), pirfenidone (1%), riociguat (0.3%), sorafenib (0.3%) and lenvatinib (0.3%). Six left eyes were used per treatment group.
# During the in-life phase, gross ocular observations of very slight to moderate conjunctival congestion and swelling were similar among groups, including the vehicle control. The animals were sacrificed on Day 11 and eyes enucleated and dissected for histopathological evaluation.
# [5] = system: TGF beta 1 protein levels; experiment: TGF beta 1 protein level (ELISA) in pig linear incision wound model (Example 6); assay type: in vivo, Gottingen minipigs; conditions: 16 mg per wound site intradermal; Days 4, 7 and 9; FIG. 11
# Description: Full-thickness linear incision wounds were created in Gottingen minipigs on Day 1. 10 wounds approximately 3 cm in length and spaced at least 5 cm apart were created on the dorsal surface of the animals, perpendicular to the spine. Test agents included nintedanib (2%), lenvatinib (2%), sorafenib (1%), axitinib (2%) and vehicle control. Test agents were administered by intradermal injection immediately after wound creation. The dose of nintedanib, lenvatinib, sorafenib, or axitinib was 16 mg per wound site. Three minipigs were dosed in a similar manner. One minipig was sacrificed on Day 4, one on Day 7, and one on Day 9.
# At the time of sacrifice, two dermal punch biopsies (4 mm) from each side of the wound sites were collected. Two biopsies were flash frozen in liquid nitrogen and stored at −80° C. prior to processing by protein extraction and ELISA (enzyme-linked immunosorbent assay) analysis. TGF beta protein levels were measured on Days 4, 7 and 9.
# [6] = TE+PE induced rats, axitinib 1%, sorafenib 1%, pirfenidone 2.5%, severity score 0 (not present) to 5 (severe), induced vehicle group score=2
# [7] = TE+PE induced rats, intra-prostate 0.4 ml days 1 and 18, day 32, induced vehicle score=4
# [8] = 1% intradermal, rabbit ear wound
SMILES,"Fibrosis/Collagen (histopathology score, treated mean) ([1]; rabbit ear wound)","Neovascularization (histopathology score, treated mean) ([1]; rabbit ear wound)","Reepithelialization (histopathology score, treated mean) ([1]; rabbit ear wound)","Total Score (histopathology, treated mean) ([1]; rabbit ear wound)","epithelial hyperplasia score, representative image of dorsolateral prostate [2, 6]","epithelial (glandular) hyperplasia score, dorsolateral prostate, representative image [3, 7]","mean dorsolateral prostate hyperplasia scores compared to vehicle treatment ([2]; riociguat 1%, pirfenidone 2.5%)",other results
CNC(=O)c1ccccc1Sc1ccc2c(/C=C/c3ccccn3)n[nH]c2c1 [axitinib],3.3,1,0.3,4.6,1,–,–,"average total score of test wounds lower than untreated/control wounds by ([1]; 1% intradermal, difference treated vs control): 1.4"
"COc1cc2nc(N3CCN(C(=O)C4COc5ccccc5O4)CC3)nc(N)c2cc1OC (centres unmarked) [doxazosin, doxazosin mesylate]",–,–,–,–,–,3,–,"epithelial (glandular) hyperplasia score, ventral prostate, representative image ([3]; TE+PE induced rats, intra-prostate 0.4 ml days 1 and 18, day 32, grade 0 to 5, induced vehicle score=4, FIG. 5): 3"
Cc1ccc(=O)n(-c2ccccc2)c1 [pirfenidone],–,–,–,–,1,–,demonstrated a decrease in hyperplasia scores,–
COC(=O)N(C)c1c(N)nc(-c2nn(Cc3ccccc3F)c3ncccc23)nc1N [riociguat],–,–,–,–,–,–,demonstrated a decrease in hyperplasia scores,"epithelial hyperplasia score, representative image of dorsolateral prostate ([2]; TE induced rat, riociguat 1%, severity score 0 to 5, TE-induced group 6 score=2): 1; mean prostate weight (prostate weight/100 g body weight) ([2]; TE induced rats, riociguat 1% intra-prostate days 15 and 29, compared to group 6): resulted in a reduction in the mean prostate weight"
CNC(=O)c1cc(Oc2ccc(NC(=O)Nc3ccc(Cl)c(C(F)(F)F)c3)cc2)ccn1 [sorafenib],2.5,3,0.3,5.8,2,–,did not lead to reduction in hyperplasia,"angiogenesis and fibrosis at treated trauma sites (histopathology summary) [1, 8]: do not show any reduction in angiogenesis and fibrosis; fibrosis compared with control wound sites [1, 8]: similar, or increased fibrosis compared to control sites; neovascularization compared with untreated wounds [1, 8]: slightly increased neovascularization; scar formation overall compared with control sites [1, 8]: does not appear to have reduced scar formation; mean folds of TGF beta mRNA expression vs untreated trauma samples (TGF beta mRNA expression): do not show mean TGF beta expression levels significantly different from the untreated trauma samples; mean prostate weight (prostate weight/100 g body weight) ([2]; TE+PE induced rats, 1% test article, intra-prostate 0.2 mL days 15 and 29, compared to vehicle-treated group 1): did not show a reduction in the mean prostate weight; areas of neovascularization on the corneal surface ([4]; 0.3% topical 35 μL/eye three times daily for 10 days, FIG. 8): efficacious in reducing the areas of neovascularization; fibroplasia and/or collagen density (histological staining) ([4]; 0.3% topical three times daily for 10 days, Day 11, FIG. 9): little or no effect on fibroplasia or collagen formation; alpha SMA staining (immunohistochemical analysis) ([4]; 0.3% topical three times daily for 10 days, relative to vehicle, FIG. 9): no effect on alpha SMA relative to vehicle treatment; TGF beta 1 protein levels in wound [5]: much less effective"
CCN(CC)CCNC(=O)c1c(C)[nH]c(/C=C2\C(=O)Nc3ccc(F)cc32)c1C [sunitinib],3.7,4,0,7.7,–,3,–,"epithelial (glandular) hyperplasia score, ventral prostate, representative image ([3]; 768 h): 3"
